Measured values from patent US20040242456A1, “Herbicidal n-alkysulfonamino derivatives” (priority 2001, published 2004).

Experiments:
[1] = test system: ECHINO; test: Pre-emergence herbicidal action; type: in vivo, Echinochloa; parameters: key: 1=total damage; 9=no action; settings: 250 g of active ingredient per ha, sprayed immediately after sowing, evaluated after 3 weeks; scale of nine ratings, 1 to 4 good to very good action
Procedure: (§1) Monocotyledonous and dicotyledonous test plants are sown in standard soil in plastic pots. Immediately after sowing, the test compounds, in the form of an aqueous suspension (prepared from a 25% wettable powder (Example F3, b) according to WO 97/34485) or in the form of an emulsion (prepared from a 25% emulsifiable concentrate (Example F1, c)), are applied by spraying, in an amount corresponding to 250 g of active ingredient per ha (500 litres of water per ha). The test plants are then grown in a greenhouse under optimum conditions. After a test duration of 3 weeks, the test is evaluated in accordance with a scale of nine ratings (1=total damage, 9=no action). Ratings of from 1 to 4 (especially from 1 to 3) indicate good to very good herbicidal action.

[2] = test system: AMARAN; test: Pre-emergence herbicidal action; type: in vivo, Amaranthus; parameters: key: 1=total damage; 9=no action; settings: 250 g of active ingredient per ha, sprayed immediately after sowing, evaluated after 3 weeks; scale of nine ratings, 1 to 4 good to very good action
Procedure: as §1

[3] = test system: ABUTIL; test: Post-emergence herbicidal action; type: in vivo, Abutilon; parameters: key: 1=total damage; 9=no action; settings: 250 g of active ingredient per ha, sprayed at 4- to 6-leaf stage, evaluated after about 18 days; scale of nine ratings, 1 to 4 good to very good action
Procedure: (§2) Monocotyledonous and dicotyledonous test plants are grown in standard soil in plastic pots in a greenhouse and, at the 4- to 6-leaf stage, are sprayed with an aqueous suspension of the test compounds of formula I, prepared from a 25% wettable powder (Example F3, b) according to WO 97/34485 or with an emulsion of the test compounds of formula I, prepared from a 25% emulsifiable concentrate (Example F1, c) according to WO 97/34485, in an amount corresponding to 250 g of active ingredient per ha (500 litres of water per ha). The test plants are then grown on in the greenhouse under optimum conditions. After a test duration of about 18 days, the test is evaluated in accordance with a scale of nine ratings (1=total damage, 9=no action). Ratings of from 1 to 4 (especially from 1 to 3) indicate good to very good herbicidal action.

[4] = test system: CHENOP; test: Pre-emergence herbicidal action; type: in vivo, Chenopodium; parameters: key: 1=total damage; 9=no action; settings: 250 g of active ingredient per ha, sprayed immediately after sowing, evaluated after 3 weeks; scale of nine ratings, 1 to 4 good to very good action
Procedure: as §1

[5] = test system: EUPHOR; test: Post-emergence herbicidal action; type: in vivo; settings: 250 g of active ingredient per ha, sprayed at 4- to 6-leaf stage, evaluated after about 18 days; scale of nine ratings, 1 to 4 good to very good action
Procedure: as §2

[6] = test system: ABUTIL; test: Pre-emergence herbicidal action; type: in vivo, Abutilon; parameters: key: 1=total damage; 9=no action; settings: 250 g of active ingredient per ha, sprayed immediately after sowing, evaluated after 3 weeks; scale of nine ratings, 1 to 4 good to very good action
Procedure: as §1

[7] = test system: ECHINO; test: Post-emergence herbicidal action; type: in vivo, Echinochloa; settings: 250 g of active ingredient per ha, sprayed at 4- to 6-leaf stage, evaluated after about 18 days; scale of nine ratings, 1 to 4 good to very good action
Procedure: as §2

[8] = test system: CHENOP; test: Post-emergence herbicidal action; type: in vivo, Chenopodium; parameters: key: 1=total damage; 9=no action; settings: 250 g of active ingredient per ha, sprayed at 4- to 6-leaf stage, evaluated after about 18 days; scale of nine ratings, 1 to 4 good to very good action
Procedure: as §2

[9] = test system: STELLA; test: Pre-emergence herbicidal action; type: in vivo, Stellaria; parameters: key: 1=total damage; 9=no action; settings: 250 g of active ingredient per ha, sprayed immediately after sowing, evaluated after 3 weeks; scale of nine ratings, 1 to 4 good to very good action
Procedure: as §1

[10] = test system: PANICU; test: Pre-emergence herbicidal action; type: in vivo; parameters: key: 1=total damage; 9=no action; settings: 250 g of active ingredient per ha, sprayed immediately after sowing, evaluated after 3 weeks; scale of nine ratings, 1 to 4 good to very good action
Procedure: as §1

[11] = test system: DIGITA; test: Pre-emergence herbicidal action; type: in vivo, Digitaria; parameters: key: 1=total damage; 9=no action; settings: 250 g of active ingredient per ha, sprayed immediately after sowing, evaluated after 3 weeks; scale of nine ratings, 1 to 4 good to very good action
Procedure: as §1

[12] = test system: DIGITA; test: Post-emergence herbicidal action; type: in vivo, Digitaria; parameters: key: 1=total damage; 9=no action; settings: 250 g of active ingredient per ha, sprayed at 4- to 6-leaf stage, evaluated after about 18 days; scale of nine ratings, 1 to 4 good to very good action
Procedure: as §2

[13] = test system: SETARI; test: Pre-emergence herbicidal action; type: in vivo, Setaria; parameters: key: 1=total damage; 9=no action; settings: 250 g of active ingredient per ha, sprayed immediately after sowing, evaluated after 3 weeks; scale of nine ratings, 1 to 4 good to very good action
Procedure: as §1

[14] = test system: SETARI; test: Post-emergence herbicidal action; type: in vivo, Setaria; settings: 250 g of active ingredient per ha, sprayed at 4- to 6-leaf stage, evaluated after about 18 days; scale of nine ratings, 1 to 4 good to very good action
Procedure: as §2

[15] = test system: PANICU; test: Post-emergence herbicidal action; type: in vivo; parameters: key: 1=total damage; 9=no action; settings: 250 g of active ingredient per ha, sprayed at 4- to 6-leaf stage, evaluated after about 18 days; scale of nine ratings, 1 to 4 good to very good action
Procedure: as §2

[16] = test system: AMARAN; test: Post-emergence herbicidal action; type: in vivo, Amaranthus; parameters: key: 1=total damage; 9=no action; settings: 250 g of active ingredient per ha, sprayed at 4- to 6-leaf stage, evaluated after about 18 days; scale of nine ratings, 1 to 4 good to very good action
Procedure: as §2

`COCCN(C1=C(C(=O)c2ccc(C(F)(F)F)nc2C)C(=O)C(C)(C)C(=O)C1(C)C)S(C)(=O)=O` [Example 1.001] was tested, and the “Pre-emergence action ECHINO, rating” value [1] was 1, the “Pre-emergence action AMARAN, rating” value [2] was 1 and the “Post-emergence action ABUTIL, rating” value [3] was 1. The “Pre-emergence action CHENOP, rating” value [4] was 1, the “Post-emergence action EUPHOR, rating” value [5] was 2 and the “Pre-emergence action ABUTIL, rating” value [6] was 1. The “Post-emergence action ECHINO, rating” value [7] was 2, the “Post-emergence action CHENOP, rating” value [8] was 1 and the “Pre-emergence action STELLA, rating” value [9] was 4. The “Pre-emergence action PANICU, rating” value [10] was 1, the “Pre-emergence action DIGITA, rating” value [11] was 1 and the “Post-emergence action DIGITA, rating” value [12] was 1. The “Pre-emergence action SETARI, rating” value [13] was 2, the “Post-emergence action SETARI, rating” value [14] was 2 and the “Post-emergence action PANICU, rating” value [15] was 1. For the same compound, the “Post-emergence action AMARAN, rating” value [16] was 2.
With `CCS(=O)(=O)N(CCOC)C1=C(C(=O)c2ccc(C(F)(F)F)nc2C)C(=O)C(C)(C)C(=O)C1(C)C` [Example 1.007] the “Pre-emergence action ECHINO, rating” value [1] was 1, the “Pre-emergence action AMARAN, rating” value [2] was 1 and the “Post-emergence action ABUTIL, rating” value [3] was 1. For the same compound, the “Pre-emergence action CHENOP, rating” value [4] was 1, the “Post-emergence action EUPHOR, rating” value [5] was 2 and the “Pre-emergence action ABUTIL, rating” value [6] was 1. For the same compound, the “Post-emergence action ECHINO, rating” value [7] was 2, the “Post-emergence action CHENOP, rating” value [8] was 1 and the “Pre-emergence action STELLA, rating” value [9] was 1. The “Pre-emergence action PANICU, rating” value [10] was 1, the “Pre-emergence action DIGITA, rating” value [11] was 1 and the “Post-emergence action DIGITA, rating” value [12] was 1. The “Pre-emergence action SETARI, rating” value [13] was 1, the “Post-emergence action SETARI, rating” value [14] was 2 and the “Post-emergence action PANICU, rating” value [15] was 1. For the same compound, the “Post-emergence action AMARAN, rating” value [16] was 2.
In the case of `COCCN(C1=C(C(=O)c2ccc(C(F)(F)F)nc2C)C(=O)C2CCC1C2)S(C)(=O)=O` (stereo not shown) [Example 1.012], the “Pre-emergence action ECHINO, rating” value [1] is reported as 1, the “Pre-emergence action AMARAN, rating” value [2] is reported as 1 and the “Post-emergence action ABUTIL, rating” value [3] is reported as 2. The “Post-emergence action EUPHOR, rating” value [5] was 2, the “Pre-emergence action ABUTIL, rating” value [6] was 1 and the “Post-emergence action ECHINO, rating” value [7] was 2. For the same compound, the “Post-emergence action CHENOP, rating” value [8] was 1, the “Pre-emergence action STELLA, rating” value [9] was 4 and the “Pre-emergence action PANICU, rating” value [10] was 1. For the same compound, the “Pre-emergence action DIGITA, rating” value [11] was 1, the “Post-emergence action DIGITA, rating” value [12] was 2 and the “Pre-emergence action SETARI, rating” value [13] was 1. For the same compound, the “Post-emergence action SETARI, rating” value [14] was 2, the “Post-emergence action PANICU, rating” value [15] was 2 and the “Post-emergence action AMARAN, rating” value [16] was 2.
With `CCS(=O)(=O)N(CCOC)C1=C(C(=O)c2ccc(C(F)(F)F)nc2C)C(=O)C2CCC1C2` (stereo not shown) [Example 1.013, Ethanesulfonic acid(2-methoxy-ethyl)-[3-(2-methyl-6-trifluoromethyl-pyridine-3-carbonyl)-4-oxo-bicyclo[3.2.1]oct-2-en-2-yl]-amide] the “Pre-emergence action ECHINO, rating” value [1] was 1, the “Pre-emergence action AMARAN, rating” value [2] was 1 and the “Post-emergence action ABUTIL, rating” value [3] was 2. For the same compound, the “Pre-emergence action CHENOP, rating” value [4] was 1, the “Post-emergence action EUPHOR, rating” value [5] was 2 and the “Pre-emergence action ABUTIL, rating” value [6] was 1. For the same compound, the “Post-emergence action ECHINO, rating” value [7] was 2, the “Post-emergence action CHENOP, rating” value [8] was 1 and the “Pre-emergence action STELLA, rating” value [9] was 1. For the same compound, the “Pre-emergence action PANICU, rating” value [10] was 1, the “Pre-emergence action DIGITA, rating” value [11] was 1 and the “Post-emergence action DIGITA, rating” value [12] was 2. For the same compound, the “Pre-emergence action SETARI, rating” value [13] was 1, the “Post-emergence action SETARI, rating” value [14] was 2 and the “Post-emergence action PANICU, rating” value [15] was 1. For the same compound, the “Post-emergence action AMARAN, rating” value [16] was 1.
`COCCN(C1=C(C(=O)c2ccc(C(F)(F)F)nc2C)C(=O)C2CCC1C2)S(=O)(=O)c1ccccc1` (stereo not shown) [Example 1.027] was tested, and the “Pre-emergence action ECHINO, rating” value [1] was 3, the “Pre-emergence action AMARAN, rating” value [2] was 2 and the “Pre-emergence action CHENOP, rating” value [4] was 9. The “Pre-emergence action ABUTIL, rating” value [6] was 3, the “Pre-emergence action STELLA, rating” value [9] was 9 and the “Pre-emergence action PANICU, rating” value [10] was 2. For the same compound, the “Pre-emergence action DIGITA, rating” value [11] was 2 and the “Pre-emergence action SETARI, rating” value [13] was 2.
`CCS(=O)(=O)N(Cc1ccccc1)C1=C(C(=O)c2ccc(C(F)(F)F)nc2C)C(=O)C2CCC1C2` (stereo not shown) [Example 1.065] was tested, and the “Pre-emergence action ECHINO, rating” value [1] was 1, the “Pre-emergence action AMARAN, rating” value [2] was 2 and the “Post-emergence action ABUTIL, rating” value [3] was 2. For the same compound, the “Pre-emergence action CHENOP, rating” value [4] was 2, the “Post-emergence action EUPHOR, rating” value [5] was 3 and the “Pre-emergence action ABUTIL, rating” value [6] was 1. The “Post-emergence action ECHINO, rating” value [7] was 3, the “Post-emergence action CHENOP, rating” value [8] was 1 and the “Pre-emergence action STELLA, rating” value [9] was 1. For the same compound, the “Pre-emergence action PANICU, rating” value [10] was 1, the “Pre-emergence action DIGITA, rating” value [11] was 1 and the “Post-emergence action DIGITA, rating” value [12] was 2. For the same compound, the “Pre-emergence action SETARI, rating” value [13] was 1, the “Post-emergence action SETARI, rating” value [14] was 5 and the “Post-emergence action PANICU, rating” value [15] was 2. For the same compound, the “Post-emergence action AMARAN, rating” value [16] was 2.
In the case of `Cc1nc(C(F)(F)F)ccc1C(=O)C1=C(N(Cc2ccccc2)S(=O)(=O)C(C)C)C2CCC(C2)C1=O` (stereo not shown) [Example 1.067], the “Pre-emergence action ECHINO, rating” value [1] is reported as 2, the “Pre-emergence action AMARAN, rating” value [2] is reported as 2 and the “Pre-emergence action CHENOP, rating” value [4] is reported as 1. The “Pre-emergence action ABUTIL, rating” value [6] was 2, the “Pre-emergence action STELLA, rating” value [9] was 1 and the “Pre-emergence action PANICU, rating” value [10] was 1. The “Pre-emergence action DIGITA, rating” value [11] was 1 and the “Pre-emergence action SETARI, rating” value [13] was 1.
For `Cc1nc(C(F)(F)F)ccc1C(=O)C1=C(N(Cc2ccccc2)S(=O)(=O)c2ccccc2)C2CCC(C2)C1=O` (stereo not shown) [Example 1.079], the “Pre-emergence action ECHINO, rating” value [1] was 2, the “Pre-emergence action AMARAN, rating” value [2] was 3 and the “Pre-emergence action CHENOP, rating” value [4] was 2. The “Pre-emergence action ABUTIL, rating” value [6] was 4, the “Pre-emergence action STELLA, rating” value [9] was 2 and the “Pre-emergence action PANICU, rating” value [10] was 1. For the same compound, the “Pre-emergence action DIGITA, rating” value [11] was 3 and the “Pre-emergence action SETARI, rating” value [13] was 6.
